Where a name gives a salt, the structure may show the parent alone.
Legend:
[1] = cited from earlier work
[2] = test system: angina pectoris patients; test: efficacy and safety of landiolol hydrochloride in coronary angiography using MSCT; format: in vivo, human
Excerpt: Evaluation of efficacy and safety of landiolol hydrochloride to the coronary angiography ability using MSCT:
In the imaging of MSCT, LightSpeed Ultra 16 (16-slices MSCT, manufactured by GE medical systems) was used.
As a Workstation, Advantage Workstation AW 4.2 (manufactured by GE Medical Systems) was used.
As an imaging analysis soft, CardIQ Analysis II manufactured by GE Medical Systems was used.
As contrast media, iomeprol 350 mgI/ml (brand name: Iomeron 350, manufactured by Eisai Co., Ltd., was used.
To four angina pectoris patients, was intravenously administered landiolol hydrochloride swiftly over a period of 1 minute (0.063 mg/kg/minute), followed by a sustained intravenous administration over a period of 10 minutes (0.02 mg/kg/minute).
The contrast media were administered 10 minutes after confirming that the heart rate was slowed down. The imaging timing was determined by a test injection method using contrast media. As a result of swift administration of iomeprol (10 ml) and saline (20 ml) sequentially, it took approximately average of 16 seconds for iomeprol to reach heart. Afterwards, iomeprol (70 ml) and saline (20 ml) were swiftly administered sequentially and in time with the timing when iomeprol reached heart, MSCT imaging was started.
Three-dimensional overall figures of coronary artery were grasped with (A), and then followed by evaluation of the lesion site with (B) and (C), optionally followed by addition of an orthogonal cross-section imaging of a coronary artery for further confirmation.
To the above four angina pectosis patients, landiolol hydrochloride was administered. […] The inhibition rate (%) was calculated by {(post-value/(pre-value)×100−100}.

| Compound | half life in blood [1] | image quality of coronary angiography by MSCT ([2]; after administration of landiolol hydrochloride, iomeprol contrast medium, 16-slices MSCT) | lowering of the blood pressure (safety) ([2]; angina pectoris patients, after administration) | Heart rate after administration ([2]; four angina pectoris patients (n = 4), i.v. 0.063 mg/kg/minute for 1 minute, then 0.02 mg/kg/minute for 10 minutes, before administration 61.0) [min⁻¹] | Systolic blood pressure after administration ([2]; four angina pectoris patients (n = 4), i.v. 0.063 mg/kg/minute for 1 minute, then 0.02 mg/kg/minute for 10 minutes, before administration 173.3) [mmHg] |
| --- | --- | --- | --- | --- | --- |
| COC(=O)CCc1ccc(OCC(O)CNC(C)C)cc1 (centres unmarked) [esmolol hydrochloride, Methyl 3-[4-[2-hydroxy-3-(isopropylamino)propoxy]phenyl]propionic acid hydrochloride] | approximately 9 minutes |  |  |  |  |
| CC1(C)OC[C@@H](COC(=O)CCc2ccc(OC[C@@H](O)CNCCNC(=O)N3CCOCC3)cc2)O1 [landiolol hydrochloride, (−)-[(S)-2,2-dimethyl-1,3-dioxolan-4-yl]methyl-3-[4-[(S)-2-hydroxy-3-(2-morpholinocarbonylamino)ethylamino]propoxy]phenylpropionic acid hydrochloride] |  | extremely sharp | no excessive lowering of the blood pressure was found | 54.8 | 161.8 |

Source: patent US20120184545A1, “HEART-SLOWING DRUG CONTAINING SHORT-ACTING BETA-BLOCKER AS TEH ACTIVE INGREDIENT” (ONO PHARMACEUTICAL CO., LTD., priority 2003, published 2012)
